Measurements as given in the supplement of paper PMC10307832.

Key:
Assay in all cases: relative viability (nuclei count vs DMSO), 5 days (fraction); higher = more cells survive
NCI-H460 = tested on: NCI-H460
How it was run: (§1)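 Each reported value is a median over duplicate plates. It expresses relative viability: treated-well nuclei count divided by vehicle-well nuclei count. Lung cancer cell lines in 1536-well plates were dosed by pin tool a day after seeding, alone with one drug or with a fixed anchor-drug dose plus five library-drug doses (not always all listed) in √10 steps, and nuclei were counted after 5 days.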

201T = tested on: 201T
How it was run: as §1

LCLC-103H = tested on: LCLC-103H
How it was run: as §1

NCI-H2347 = tested on: NCI-H2347
How it was run: as §1

LC-2-ad = tested on: LC-2-ad
How it was run: as §1

NCI-H596 = tested on: NCI-H596
How it was run: as §1

HCC-44 = tested on: HCC-44
How it was run: as §1

A-427 = tested on: A-427
How it was run: as §1

NCI-H1650 = tested on: NCI-H1650
How it was run: as §1

LU99A = tested on: LU99A
How it was run: as §1

PC-14 = tested on: PC-14
How it was run: as §1

COR-L23 = tested on: COR-L23
How it was run: as §1

NCI-H1793 = tested on: NCI-H1793
How it was run: as §1

NCI-H23 = tested on: NCI-H23
How it was run: as §1

SW 900 = tested on: SW 900
How it was run: as §1

LK-2 = tested on: LK-2
How it was run: as §1

NCI-H2228 = tested on: NCI-H2228
How it was run: as §1

H3255 = tested on: H3255
How it was run: as §1

SW 1573 = tested on: SW 1573
How it was run: as §1

LCLC-97TM1 = tested on: LCLC-97TM1
How it was run: as §1

NCI-H727 = tested on: NCI-H727
How it was run: as §1

Work on `CC(=O)O[C@@]12CO[C@@H]1C[C@H](O)[C@@]1(C)C(=O)[C@H](O)C3=C(C)[C@@H](OC(=O)[C@H](O)[C@@H](NC(=O)OC(C)(C)C)c4ccccc4)C[C@@](O)([C@@H](OC(=O)c4ccccc4)[C@H]21)C3(C)C` [Docetaxel] + O=C(c1cc(Cc2n[nH]c(=O)c3ccccc23)ccc1F)N1CCN(C(=O)C2CC2)CC1 [Olaparib] (partner 8 µM) yielded a relative viability (NCI-H460; first compound 0.0002 µM) of 0.373, a relative viability (NCI-H460; first compound 0.000632 µM) of 0.31 and a relative viability (NCI-H460; first compound 0.002 µM) of 0.0608. It also gave a relative viability (NCI-H460; first compound 0.006325 µM) of 0.0428, a relative viability (NCI-H460; first compound 0.02 µM) of 0.0276 and a relative viability (201T; first compound 0.0002 µM) of 0.821. It also gave a relative viability (201T; first compound 0.000632 µM) of 0.774, a relative viability (201T; first compound 0.002 µM) of 0.637 and a relative viability (201T; first compound 0.006325 µM) of 0.432. For the same compound, the relative viability (201T; first compound 0.02 µM) was 0.267, the relative viability (LCLC-103H; first compound 0.0002 µM) was 0.744 and the relative viability (LCLC-103H; first compound 0.000632 µM) was 0.803. It also gave a relative viability (LCLC-103H; first compound 0.002 µM) of 0.748, a relative viability (LCLC-103H; first compound 0.006325 µM) of 0.643 and a relative viability (LCLC-103H; first compound 0.02 µM) of 0.481. The relative viability (NCI-H2347; first compound 0.0002 µM) was 0.613, the relative viability (NCI-H2347; first compound 0.000632 µM) was 0.566 and the relative viability (NCI-H2347; first compound 0.002 µM) was 0.557. For the same compound, the relative viability (NCI-H2347; first compound 0.006325 µM) was 0.505, the relative viability (NCI-H2347; first compound 0.02 µM) was 0.388 and the relative viability (LC-2-ad; first compound 0.0002 µM) was 0.623. The relative viability (LC-2-ad; first compound 0.000632 µM) was 0.411, the relative viability (LC-2-ad; first compound 0.002 µM) was 0.304 and the relative viability (LC-2-ad; first compound 0.02 µM) was 0.191. For the same compound, the relative viability (NCI-H596; first compound 0.0002 µM) was 0.685, the relative viability (NCI-H596; first compound 0.000632 µM) was 0.83 and the relative viability (NCI-H596; first compound 0.002 µM) was 0.638. It also gave a relative viability (NCI-H596; first compound 0.006325 µM) of 0.418, a relative viability (NCI-H596; first compound 0.02 µM) of 0.338 and a relative viability (HCC-44; first compound 0.0002 µM) of 0.978. The relative viability (HCC-44; first compound 0.000632 µM) was 0.954, the relative viability (HCC-44; first compound 0.002 µM) was 0.908 and the relative viability (HCC-44; first compound 0.006325 µM) was 0.682. It also gave a relative viability (HCC-44; first compound 0.02 µM) of 0.616, a relative viability (A-427; first compound 0.0002 µM) of 0.662 and a relative viability (A-427; first compound 0.000632 µM) of 0.704. For the same compound, the relative viability (A-427; first compound 0.002 µM) was 0.538, the relative viability (A-427; first compound 0.006325 µM) was 0.292 and the relative viability (A-427; first compound 0.02 µM) was 0.198. The relative viability (NCI-H1650; first compound 0.0002 µM) was 0.64, the relative viability (NCI-H1650; first compound 0.000632 µM) was 0.545 and the relative viability (NCI-H1650; first compound 0.002 µM) was 0.218. It also gave a relative viability (NCI-H1650; first compound 0.006325 µM) of 0.241, a relative viability (NCI-H1650; first compound 0.02 µM) of 0.162 and a relative viability (LU99A; first compound 0.0002 µM) of 0.259. For the same compound, the relative viability (LU99A; first compound 0.000632 µM) was 0.201, the relative viability (LU99A; first compound 0.002 µM) was 0.209 and the relative viability (LU99A; first compound 0.006325 µM) was 0.23. The relative viability (LU99A; first compound 0.02 µM) was 0.163, the relative viability (PC-14; first compound 0.0002 µM) was 0.276 and the relative viability (PC-14; first compound 0.000632 µM) was 0.164. The relative viability (PC-14; first compound 0.002 µM) was 0.0642, the relative viability (PC-14; first compound 0.006325 µM) was 0.0438 and the relative viability (PC-14; first compound 0.02 µM) was 0.0274. For the same compound, the relative viability (COR-L23; first compound 0.0002 µM) was 0.307, the relative viability (COR-L23; first compound 0.000632 µM) was 0.312 and the relative viability (COR-L23; first compound 0.002 µM) was 0.161. It also gave a relative viability (COR-L23; first compound 0.006325 µM) of 0.134, a relative viability (COR-L23; first compound 0.02 µM) of 0.0881 and a relative viability (NCI-H1793; first compound 0.0002 µM) of 0.8. The relative viability (NCI-H1793; first compound 0.000632 µM) was 0.517, the relative viability (NCI-H1793; first compound 0.002 µM) was 0.287 and the relative viability (NCI-H1793; first compound 0.006325 µM) was 0.293. For the same compound, the relative viability (NCI-H23; first compound 0.0002 µM) was 0.366, the relative viability (NCI-H23; first compound 0.002 µM) was 0.221 and the relative viability (NCI-H23; first compound 0.006325 µM) was 0.164. It also gave a relative viability (NCI-H23; first compound 0.02 µM) of 0.105, a relative viability (SW 900; first compound 0.0002 µM) of 0.817 and a relative viability (SW 900; first compound 0.000632 µM) of 0.353. For the same compound, the relative viability (SW 900; first compound 0.002 µM) was 0.281, the relative viability (SW 900; first compound 0.006325 µM) was 0.266 and the relative viability (SW 900; first compound 0.02 µM) was 0.172. It also gave a relative viability (LK-2; first compound 0.0002 µM) of 0.599, a relative viability (LK-2; first compound 0.000632 µM) of 0.249 and a relative viability (LK-2; first compound 0.002 µM) of 0.156. For the same compound, the relative viability (LK-2; first compound 0.006325 µM) was 0.118, the relative viability (LK-2; first compound 0.02 µM) was 0.0792 and the relative viability (NCI-H2228; first compound 0.0002 µM) was 0.446. The relative viability (NCI-H2228; first compound 0.000632 µM) was 0.275, the relative viability (NCI-H2228; first compound 0.002 µM) was 0.153 and the relative viability (NCI-H2228; first compound 0.006325 µM) was 0.13. The relative viability (NCI-H2228; first compound 0.02 µM) was 0.0992, the relative viability (H3255; first compound 0.0002 µM) was 0.59 and the relative viability (H3255; first compound 0.000632 µM) was 0.555. For the same compound, the relative viability (H3255; first compound 0.002 µM) was 0.439, the relative viability (H3255; first compound 0.006325 µM) was 0.336 and the relative viability (H3255; first compound 0.02 µM) was 0.33. It also gave a relative viability (SW 1573; first compound 0.0002 µM) of 0.304, a relative viability (SW 1573; first compound 0.000632 µM) of 0.223 and a relative viability (SW 1573; first compound 0.002 µM) of 0.199. It also gave a relative viability (SW 1573; first compound 0.006325 µM) of 0.162, a relative viability (SW 1573; first compound 0.02 µM) of 0.119 and a relative viability (LCLC-97TM1; first compound 0.0002 µM) of 0.467. The relative viability (LCLC-97TM1; first compound 0.000632 µM) was 0.272, the relative viability (LCLC-97TM1; first compound 0.002 µM) was 0.107 and the relative viability (LCLC-97TM1; first compound 0.006325 µM) was 0.0877. The relative viability (LCLC-97TM1; first compound 0.02 µM) was 0.0634, the relative viability (NCI-H727; first compound 0.0002 µM) was 0.664 and the relative viability (NCI-H727; first compound 0.000632 µM) was 0.526. For the same compound, the relative viability (NCI-H727; first compound 0.002 µM) was 0.682, the relative viability (NCI-H727; first compound 0.006325 µM) was 0.645 and the relative viability (NCI-H727; first compound 0.02 µM) was 0.524.
